Assay results published in PMC12814167, “Optimizing Stability in Dynamic Small-Molecule Binding Proteins” (Journal of the American Chemical Society, 2025).
Read-outs that look alike come from different tables or passages of the source.

How the values were obtained:
[1] = target: LAO.2; assay: Isothermal titration calorimetry of the purified protein with its cognate ligand at 25 °C in SEC running buffer (25 mM sodium phosphate, 500 mM NaCl, pH 7.4), fitted with a one-site binding model.; conditions: SD, n = 3
Experimental: (§1) Ligands were dissolved in the specific buffer that was used in the size-exclusion chromatography (SEC) run of each protein purification (stored at −20 °C and thawed on the day of use). All protein and ligand samples were degassed and the temperature equilibrated to 25 °C for at least 10 min using a degassing station (TA Instruments). 400 μL of protein samples was loaded into the sample cell of a low volume AffinityITC machine with gold cell (TA Instruments) and ligand solutions were added into the injection syringe (protein and ligand concentrations can be found in Table S5). ITC measurements were performed at 25 °C with 20 injections of 2.5 μL (one initial injection of 0.5 μL was excluded from analysis), an adaptive injection interval, and stirring rate of 125 rpm. Subtractions of constant heat of dilution values for each ligand, peak integration, and fitting with a one-site binding model were done with NanoAnalyze (TA Instruments). The reported errors reflect the standard deviation of three technical replicas.

[2] = target: LAO.1; assay: as above; conditions: SD, n = 3
Experimental: as §1

[3] = target: LAO.4; assay: as above; conditions: SD, n = 3
Experimental: as §1

[4] = target: T1, LAO.0 (Salmonella enterica, UniProt P02911); assay: as above; conditions: SD, n = 3
T1 construct: gene argT
Experimental: as §1

[5] = target: LAO.3; assay: as above; conditions: SD, n = 3
Experimental: as §1

[6] = target: TphC.1; assay: as above; conditions: SD, n = 3
Experimental: as §1

[7] = target: TphC.4; assay: as above; conditions: SD, n = 3
Experimental: as §1

[8] = target: TphC.3; assay: as above; conditions: SD, n = 3
Experimental: as §1

[9] = target: TphC.0; assay: as above; conditions: SD, n = 3
Experimental: as §1

[10] = target: TphC.2; assay: as above; conditions: SD, n = 3
Experimental: as §1

[11] = target: PotF.2; conditions: SD, n = 3
Experimental: as §1

[12] = target: PotF.4; conditions: SD, n = 3
Experimental: as §1

[13] = target: PotF.0 (Escherichia coli, UniProt P31133); assay: Isothermal titration calorimetry of the purified protein with its cognate ligand at 25 °C in SEC running buffer (25 mM sodium phosphate, 500 mM NaCl, pH 7.4), fitted with a one-site binding model.; conditions: SD, n = 3
Experimental: as §1

[14] = target: PotF.3 (Escherichia coli, UniProt P31133, A339P/E108N/E331D/F129Y/F266Y/K202N/N154D/S178A/S252A/S265A/T94S/V186I); assay: as above; conditions: SD, n = 3
Sequence of PotF.3 (P31133 27-370 T94S/E108N/F129Y/N154D/S178A/V186I/K202N/S252A/S265A/F266Y/E331D/A339P): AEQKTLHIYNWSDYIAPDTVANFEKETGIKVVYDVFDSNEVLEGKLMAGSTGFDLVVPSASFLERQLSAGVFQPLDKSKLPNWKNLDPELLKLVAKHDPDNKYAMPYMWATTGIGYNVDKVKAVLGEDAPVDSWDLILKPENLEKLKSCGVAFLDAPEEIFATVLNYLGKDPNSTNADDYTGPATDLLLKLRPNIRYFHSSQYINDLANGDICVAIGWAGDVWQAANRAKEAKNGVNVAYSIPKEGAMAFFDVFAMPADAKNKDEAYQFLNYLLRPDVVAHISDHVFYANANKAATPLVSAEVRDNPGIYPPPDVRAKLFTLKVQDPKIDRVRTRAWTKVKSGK
Experimental: as §1

[15] = target: PotF.1 (Escherichia coli, UniProt P31133, A203P/A327P/A339P/E108N/E331D/F129Y/F266Y/F313Y/K122Q/K202N/M131I/N154D/S178A/S252A/S265A/S267T/S326N/T322L/V186I/V264I/V305M/V46I); assay: as above; conditions: SD, n = 3
Sequence of PotF.1 (P31133 other isoform, or with tags, fused parts or gaps with the stated changes): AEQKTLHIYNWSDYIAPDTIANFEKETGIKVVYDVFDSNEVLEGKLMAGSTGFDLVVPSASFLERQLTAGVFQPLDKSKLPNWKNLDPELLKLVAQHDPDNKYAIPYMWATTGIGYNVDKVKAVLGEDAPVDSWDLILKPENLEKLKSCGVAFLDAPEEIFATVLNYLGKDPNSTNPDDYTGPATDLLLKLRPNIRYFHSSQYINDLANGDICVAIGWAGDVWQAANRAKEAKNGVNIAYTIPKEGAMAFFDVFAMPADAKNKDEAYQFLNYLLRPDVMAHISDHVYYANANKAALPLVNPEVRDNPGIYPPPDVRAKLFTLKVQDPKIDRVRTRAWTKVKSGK
Experimental: as §1

[16] = target: MBP.3; assay: as above; conditions: SD, n = 3
Experimental: as §1

[17] = target: MBP.4; assay: as above; conditions: SD, n = 3
Experimental: as §1

[18] = target: MBP.2; assay: as above; conditions: n = 3
Experimental: as §1

[19] = target: MBP.1; assay: as above; conditions: SD, n = 3
Experimental: as §1

[20] = parameters: method as in previously published binding constants; conditions: wild type LAO; ref previously published binding constants; read-out: binding constant; cited from earlier work
[21] = CD thermal melt (Tmelt) of apo protein; type: physicochemical; conditions: CD at 222 nm, 20 to 95 °C, 1 °C/min, apo protein 0.2 mg/mL, pH 7.4, error from fit uncertainty
Experimental: To remove salts, protein samples were dialyzed overnight against 2 L of CD buffer (25 mM NaH2PO4/Na2HPO4, pH 7.4) using a 10 kDa molecular weight cutoff. Aggregated protein was removed by centrifugation at 15 000g for 5 min using a tabletop centrifuge (Eppendorf 5427R). Next, the protein concentration was adjusted to 0.3 mg/mL and verified photometrically. 200 μL of protein samples were mixed with either 100 μL of CD buffer or 100 μL of ligand solution (300 μM stocks of ligand solubilized in CD buffer) to reach a final concentration of 100 μM for the ligands and 0.2 mg/mL for the protein. CD spectra and thermal melt experiments were obtained on a JASCO J-1500 instrument using a glass cuvette with a 1 mm path length. For CD spectra, the following settings were used: wavelengths 240–190 nm, bandwidth 1 nm, response time 2 s, data pitch 0.1 nm, scanning speed 100 nm/min, and ten accumulations (for buffer controls only one accumulation was used). For Tmelt measurements, the following settings were used: wavelength of 222 nm, temperature range from 20 to 95 °C controlled by a Pelletier AWC100 (Julabo) using a slope of 1 °C/min, a bandwidth of 1 nm, and a response time of 2 s. Raw CD data were normalized by subtraction of the respective buffer data and subsequent conversion of the measured signal in millidegree to mean residue molar ellipticity. To obtain the apparent melting temperature T m, thermal melt data were fit using a sigmoidal equation according to Niklasson et al. The error plotted stems from the fit function uncertainty.

[22] = Isothermal titration calorimetry, LAO variants with L-lysine; type: binding; conditions: ITC, 25 °C
Source text: buffer-lysine 1 - 3 - 300
Supporting Table 5. Protein and ligand concentrations for ITC measurements

[23] = parameters: method as in previously published binding constants; conditions: wild type PotF; ref previously published binding constants; read-out: binding constant; cited from earlier work
[24] = Isothermal titration calorimetry, PotF variants with putrescine; type: binding; conditions: ITC, 25 °C
Source text: Protein Design ID Experimental Protein Ligand target repeat concentration concentration (µM) […]

NCCCC[C@H](N)C(=O)O [L-lysine]
Kd [1]: 612 ± 56 nM
Kd [2]: 2500 ± 211 nM
Kd [3]: 150 ± 21 nM
Kd [4]: 93 ± 35 nM
Kd [5]: 824 ± 18 nM

O=C(O)c1ccc(C(=O)O)cc1 [terephthalic acid]
Kd [6]: 5750 ± 709 nM
Kd [7]: 282 ± 39 nM
Kd [8]: 716 ± 91 nM
Kd [9]: 1180 ± 250 nM
Kd [10]: 627 ± 69 nM

NCCCCN [putrescine]
Kd [11]: 42 ± 12 nM
Kd [12]: 103 ± 10 nM
Kd [13]: 42 ± 3 nM
Kd [14]: 101 ± 17 nM
Kd [15]: 479 ± 12 nM

maltose
Kd [16]: 450 ± 44 nM
Kd [17]: 2960 ± 675 nM
Kd [18]: < 10000 nM
Kd [19]: 1310 ± 293 nM

B1: LAO.0: wild type L-lysine/L-arginine/L-ornithine binding protein LAO, Salmonella typhimurium, used as control (protein, UniProt P02911 23-260, looked up)
Lysine/arginine/ornithine-bind …: ALPQTVRIGTDTTYAPFSSKDAKGEFIGFDIDLGNEMCKRMQVKCTWVASDFDALIPSLKAKKIDAIISSLSITDKRQQEIAFSDKLYAADSRLIAAKGSPIQPTLESLKGKHVGVLQGSTQEAYANDNWRTKGVDVVAYANQDLIYSDLTAGRLDAALQDEVAASEGFLKQPAGKEYAFAGPSVKDKKYFGDGTGVGLRKDDTELKAAFDKALTELRQDGTYDKMAKKYFDFNVYGD
Kd [20]: 232 ± 106 nM
apparent T m [21]: 47 ± 0.1 °C
apparent T m ([21]; listed as LAO): 47 °C
-TΔS [22]: 3.56 ± 0.382 kcal/mol
ΔG [22]: -9.61 ± 0.22 kcal/mol
ΔH [22]: -13.2 ± 0.22 kcal/mol

B2: PotF.0: wild type putrescine-binding protein PotF, Escherichia coli (strain K12), used as control (protein, UniProt P31133 27-370, looked up)
Putrescine-binding …: AEQKTLHIYNWSDYIAPDTVANFEKETGIKVVYDVFDSNEVLEGKLMAGSTGFDLVVPSASFLERQLTAGVFQPLDKSKLPEWKNLDPELLKLVAKHDPDNKFAMPYMWATTGIGYNVDKVKAVLGENAPVDSWDLILKPENLEKLKSCGVSFLDAPEEVFATVLNYLGKDPNSTKADDYTGPATDLLLKLRPNIRYFHSSQYINDLANGDICVAIGWAGDVWQASNRAKEAKNGVNVSFSIPKEGAMAFFDVFAMPADAKNKDEAYQFLNYLLRPDVVAHISDHVFYANANKAATPLVSAEVRENPGIYPPADVRAKLFTLKVQDPKIDRVRTRAWTKVKSGK
apparent T m [21]: 63 ± 0.4 °C
apparent T m ([21]; listed as PotF): 63 °C
Kd [23]: 68 ± 40 nM
-TΔS [24]: 11.2 ± 0.287 kcal/mol
ΔG [24]: -10.1 ± 0.048 kcal/mol
ΔH [24]: -21.2 ± 0.263 kcal/mol
